The values that follow come from US10363231B2, “Compounds and methods of treating ocular disorders” (CASE WESTERN RESERVE UNIVERSITY, priority 2014, dated 2019).

Read-outs that look alike come from different tables or passages of the source.

Data set [1] addresses T1, LRAT (Bos taurus, UniProt Q9BGL2).
T1 construct: incubated with RPF microsomes that served as a source of LRAT enzymatic activity; from tissue; host or cells: bovine retinal pigment epithelium (RPE) microsomes
T1 sequence (Q9BGL2 1-230): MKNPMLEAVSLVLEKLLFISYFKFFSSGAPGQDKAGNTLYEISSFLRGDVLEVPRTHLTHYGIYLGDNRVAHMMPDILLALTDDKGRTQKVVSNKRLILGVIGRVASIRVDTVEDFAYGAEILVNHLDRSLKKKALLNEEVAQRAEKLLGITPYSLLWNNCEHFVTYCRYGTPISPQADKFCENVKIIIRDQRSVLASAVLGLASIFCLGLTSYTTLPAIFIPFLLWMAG
The experiment in a line: LRAT activity assay with bovine RPE microsomes (esterification of the corresponding primary alcohols). The settings on record: percentage of the corresponding primary alcohol esterified by LRAT in 1 h at 37° C; 10 μM; RPE microsomes. The format is biochemical. The protocol: (§1) Bovine RPE microsomes were isolated from RPE homogenates by differential centrifugation as previously described. The resulting microsomal precipitate was resuspended in 10 mM Bis-Tris propane/HCl buffer, pH 7.4, to achieve a total protein concentration of […]. Then the mixture was placed in a quartz cuvette and irradiated for 6 min at 4° C. with a ChromatoUVE transilluminator (model TM-15; UVP) to eliminate residual retinoids. After irradiation, DTT was added to the RPE microsomal mixture to achieve a final concentration of 5 mM.
Two μl of a synthesized primary alcohol or amine dissolved in DMF (final concentration 10 μM) and 2 μl of 1,2-diheptanoyl-sn-glicerol-3-phosphocholine (water, final concentration 1 mM) were added to 200 μl of 10 mM Bis-Tris propane/HCl buffer, pH 7.4, containing 150 μg of RPE microsomes and 1% (v/w) BSA. The resulting mixture was incubated at 37° C. for 1 h. The reaction was quenched by adding 300 μl of methanol. Most reaction products were extracted with 300 μl of hexanes, except for products from the QEA-C-006 and QEA-G groups which were extracted by adding 300 μl of ethyl acetate and 300 μl of water.
Reaction products were separated and quantified by normal phase HPLC (Agilent Sil 5 μm, 4.6 mm×250 mm) in stepwise gradient of ethyl acetate in hexanes (0-15 min, 10%; 20-30 min, 30%) at a flow rate of 1.4 ml·min^−1.
The properties of retinoid derivatives were examined by two standard enzymatic tests, the […] and retinoid isomerization assays. To identify substrates of LRAT, aldehydes were reduced by sodium borohydrate to their corresponding primary alcohols that then were directly used in the esterification assay (FIG. 2B).
The alcohols were incubated with RPF microsomes that served as a source of LRAT enzymatic activity. Products of the enzymatic reaction as well as the remaining substrates were extracted with organic solvents and analyzed by HPLC. The ratio between a substrate and its esterified form was used to measure enzymatic activity efficiency, based on equivalent UV absorption of the substrate and product at their specific UV maxim wavelengths. Compounds classified as ‘good’ LRAT substrates converted at least 50% of their available alcohol substrates into corresponding esters under these experimental conditions, whereas marginal LRAT substrates were converted at less than 5%. Alcohols with a 5-50% conversion ratio were classified as weak substrates. Among 35 tested compounds, 23 were categorized as good and 9 as weak substrates; 3 compounds were not esterified by LRAT (Table 1 and FIG. 2C). […] Moreover, breaking double bond conjugation along the polyene chain or deletion of a C9 and/or a C13 methyl group also was allowed.

Data set [2] addresses T2, RPE65 (Bos taurus, UniProt Q28175).
T2 construct: from tissue; host or cells: bovine retinal pigment epithelium (RPE) microsomes
Put plainly: Retinoid isomerase activity assay (11-cis-retinol production in RPE microsomes). The format is biochemical, Bovine. As to the method:
as §1
[…] The resulting mixture was pre incubated at room temperature for 5 min. Then 1 μl of all-trans-retinol (in DMF, final concentration 20 μM) was added. The resulting mixture was incubated at 37° C. for 15 min to 2 h. The reaction was quenched by adding 300 μl of methanol, and products were extracted with 300 μl of hexanes. Production of 11-cis-retinol was quantified by normal phase HPLC with 10% (v/v) ethyl acetate in hexanes as the eluent at a flow rate of 1.4 ml·min^−1. Retinoids were detected by monitoring their absorbance at 325 nm and quantified based on a standard curve representing the relationship between the amount of 11-cis-retinol and the area under the corresponding chromatographic peak.
Primary amines of compounds derived from the aldehydes were subsequently tested for their ability to inhibit the RPE65-dependent retinoid isomerization reaction in dose- and time dependent reactions as exemplified by QEB-B-001 (FIG. 3B). Amines were incubated with RPE microsomes in the presence of all-trans-retinol and the 11-cis-retinoid binding protein, CRALBP.
Progress of the enzymatic reaction was monitored by HPLC separation of retinoids and quantification of 11-cis-retinol with a decrease of 11-cis-retinol production reflecting inhibition of RPE65 by a tested amine. […] This moderate inhibition could be enhanced by shortening the polyene chain length (TEA amines) or diminished by introducing an extra positive charge into the tested compounds (QEA-G amines).

Data set [3] can be described thus: Analysis of retinoid composition in mouse tissues: amide forms in liver by HPLC. The note with it: oral gavage; for Protection by amide in liver: 4-week-old Abca4−/−Rdh8−/− mice, dark 24 h, liver extracts by HPLC; for amidation in vivo (accumulation of amide forms in mouse liver): liver HPLC. The format is in vivo, mice. As to the method:
(§2) Abca4^−/−Rdh8^−/− double knockout mice were generated as previously described. Mice were housed in the animal facility at the School of Medicine, Case Western Reserve University, where they were maintained under either complete darkness or in a 12-h light (˜300 lux) and 12-h dark cycle. All tested primary amines were suspended in 100 μl of soybean oil with less than 10% (v/v) DMSO and were administered by oral gavage with a 22-gauge feeding needle. Experimental manipulations in the dark were done under dim red light transmitted through a Kodak No. 1 safelight filter (transmittance >560 nm). All animal procedures and experiments were approved by the Case Western Reserve University Animal Care Committees and conformed to recommendations of the American Veterinary Medical Association Panel on Euthanasia and the Association of Research for Vision and Ophthalmology.
Two mg of primary amines were administered by oral gavage to 4-week-old Abca4^−/−Rdh8^−/− mice, which then were kept in the dark for 24 h. Then mice were euthanized, and their livers were homogenized in 1 ml of 10 mM sodium phosphate buffer, pH 7.4, containing 50% methanol (v/v). The resulting mixture was extracted with 4 ml of hexanes. Extracts were dried in vacuo, and reconstituted in 300 μl of hexanes. 100 μl of this solution was analyzed by HPLC as described above for the LRAT activity assay.
(§3) For practical reasons, only eight of these leading compounds (QEA-B-001-NH2, B-002-NH2, C-001-NH2, C-003-NH2, C006-NH2, E-002-NH2, TEA-B-002-NH2, and C00-2-NH2) along with retinylamine as a control were selected for further testing in Abca4^−/−Rdh8^−/− mice, an animal model for light-induced retinal degeneration (Table 2). Additionally, two novel amines with moderate inhibition of RPE65 (QEA-A-006-NH2 and QEA-B-003-NI 12) and one with strong inhibition (QEA-A-005-NH2) were added to the first test group for comparison. Mice were gavaged with 1 mg of a test compound and then kept in the dark for 24 h prior to being exposed to bright light (˜10,000 lux) for 1 h. Retinal damage was assessed with OCT that measured the thickness of the outer nuclear layer and by quantification of tissue 11-cis retinal levels. An example is shown for imaging results in FIG. 4A and for 11-cis-retinal quantification in FIG. 4B. Additionally, extracts of livers obtained from treated mice were analyzed by HPLC to estimate the amounts of corresponding amides (FIG. 4C).

Data set [4] relates to Abca4^−/−Rdh8^−/− mice. The experiment in a line: Toxicity in treated Abca4−/−Rdh8−/− mice (Table 2). The data set is classed as in vivo. The settings on record: 4-week-old Abca4−/−Rdh8−/− mice, oral gavage. As to the method: as §2, §3
Data set [5] deals with Abca4^−/−Rdh8^−/− mice. The experiment in a line: Light-induced acute retinal degeneration in Abca4−/−Rdh8−/− mice (OCT, 11-cis-retinal, ERG). The format is in vivo. The settings on record: 2 mg; dark 24 h, then 10,000 lux 1 h.
Setting [6] is: primary amine, decline in 11-cis-retinol production in RPE microsomes, read-out: Inhibition of RPE65.

T2 sequence (Q28175 whole entry): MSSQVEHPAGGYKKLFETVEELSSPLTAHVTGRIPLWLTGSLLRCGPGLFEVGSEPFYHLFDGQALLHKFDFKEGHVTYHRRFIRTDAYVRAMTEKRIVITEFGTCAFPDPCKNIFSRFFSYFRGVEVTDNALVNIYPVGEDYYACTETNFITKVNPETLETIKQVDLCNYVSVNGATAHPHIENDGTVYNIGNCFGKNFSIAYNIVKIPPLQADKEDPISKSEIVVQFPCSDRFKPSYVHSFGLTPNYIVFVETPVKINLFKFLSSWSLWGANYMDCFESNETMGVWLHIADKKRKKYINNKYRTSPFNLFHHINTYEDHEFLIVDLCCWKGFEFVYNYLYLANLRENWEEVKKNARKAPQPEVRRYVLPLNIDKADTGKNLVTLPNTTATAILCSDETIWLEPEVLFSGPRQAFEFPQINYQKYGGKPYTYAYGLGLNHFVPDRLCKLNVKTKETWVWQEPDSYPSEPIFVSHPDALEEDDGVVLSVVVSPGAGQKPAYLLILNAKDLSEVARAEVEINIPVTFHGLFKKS

Turning to `CC1=C(/C=C/C=C/C=C/C=C/CN)C(C)(C)CCC1` [QEA-A-005-NH2], the “LRAT Substrate” value in data set [1] is reported as 100%. The IC50 in data set [2] (setting [6]) and in data set [2] (read-out: inhibition of RPE65) was < 10 µM in each case. Moreover, the “Protection by amide in liver” value in data set [3] was “Strong”. In addition, the Toxicity result in data set [4] is “None”. The “protection of ONL (averaged ONL thickness by OCT)” value in data set [5] is listed as “protected”.
In the case of `CC1=C(/C=C/C(=C/C=C/C(C)=C/CN)C(C)(C)C)C(C)(C)CCC1` [QEA-B-003-NH2], in data set [1], the “LRAT Substrate” value was 100%. Moreover, the IC50 in data set [2] (setting [6]) was in the range of 10 to 100 µM. In data set [3], the “Protection by amide in liver” value is on record as “Weak” and the “amidation in vivo (accumulation of amide forms in mouse liver)” value (shortened to “amidation in vivo”) was “not efficiently amidated”. Further, the Toxicity result in data set [4] is “None”.
Regarding `CC(/C=C/C=C(/C=C/c1ccccc1)C(C)(C)C)=C\CN` [QEA-C-001-NH2], the “LRAT Substrate” value in data set [1] is given as 50%. In addition, the “inhibition of RPE65” value in data set [2] is reported as “did not inhibit”. Moreover, the IC50 in data set [2] (setting [6]) was > 200 µM. Moreover, in data set [3], the “Protection by amide in liver” value is listed as “Strong” and the “amidation in vivo” value is “efficiently converted into amides”. For the same compound, the Toxicity result in data set [4] is given as “Yes”.
As to `CC(/C=C/C=C(/C=C/c1ccc(C(F)(F)F)cc1)c1ccccc1)=C\CN` [QEA-C-003-NH2], the “LRAT Substrate” value in data set [1] was found to be 100%. Moreover, in data set [2], the “inhibition of RPE65” value is “did not inhibit”. In addition, the IC50 in data set [2] (setting [6]) is > 200 µM. In data set [3], the “Protection by amide in liver” value is on record as “None” and the “amidation in vivo” value was “not efficiently amidated”. Also, the Toxicity result in data set [4] is given as “Yes”.
As for `COc1ccc(C(=C\C=C\C(C)=C\CN)/C=C/c2ccc(O)cc2)cc1` [QEA-C-006-NH2], the “LRAT Substrate” value in data set [1] amounted to 50%. In addition, the “inhibition of RPE65” value in data set [2] was “did not inhibit”. In data set [2] (setting [6]), the IC50 was > 200 µM. Further, in data set [3], the “Protection by amide in liver” value is “None” and the “amidation in vivo” value is recorded as “not efficiently amidated”. In addition, the Toxicity entry in data set [4] was “None”.
Regarding `COc1ccc(C(=C\C=C\C(C)=C\CN)/C=C/C2=CCCCC2)cc1` [QEA-E-002-NH2], the “LRAT Substrate” value in data set [1] worked out at 100%. In addition, the “inhibition of RPE65” value in data set [2] was “did not inhibit”. The IC50 in data set [2] (setting [6]) was > 200 µM. Also, in data set [3], the “Protection by amide in liver” value is recorded as “Weak” and the “amidation in vivo” value is given as “not efficiently amidated”. In addition, the Toxicity entry in data set [4] is recorded as “None”.
Regarding `CC(C)(C)C(=C\C=C\CN)/C=C/C1=CCCCC1` [TEA-B-002-NH2], the “LRAT Substrate” value in data set [1] worked out at 10%. The “inhibition of RPE65” value in data set [2] was “did not inhibit”. In data set [2] (setting [6]), the IC50 was > 200 µM. Also, in data set [3], the “Protection by amide in liver” value is given as “None” and the “amidation in vivo” value was “not efficiently amidated”. In addition, the Toxicity entry in data set [4] is reported as “Yes”.
On to `CC(/C=C/C=C(/c1ccc2ccccc2c1)C(C)(C)C)=C\CN` [TEA-C-002-NH2], for which the “LRAT Substrate” value in data set [1] was 20%. Further, the “inhibition of RPE65” value in data set [2] is “did not inhibit”. Further, the IC50 in data set [2] (setting [6]) is > 200 µM. Also, in data set [3], the “Protection by amide in liver” value was “Strong” and the “amidation in vivo” value is on record as “efficiently converted into amides”. In addition, the Toxicity result in data set [4] is recorded as “Yes”.
